The values below come from publication PMC8153610, “Oleacein Intestinal Permeation and Metabolism in Rats Using an In Situ Perfusion Technique” (Pharmaceutics, 2021).

Read-outs that look alike come from different tables or passages of the source.

A short description of data set [1]: Metabolite profiling in lumen, plasma and ileum tissue after SPIP (LC–ESI–LTQ–Orbitrap–MS). The class given is in vivo. As for the experimental part:
The SPIP studies were performed in anesthetized rats according to the method described by López-Yerena and coworkers; the donor blood and surgical procedure (Figure 1) were as described in that study. Regarding the procedure of donor blood, the rats were anesthetized by isoflurane inhalation (2.5%), and the whole blood was collected via cardiac puncture. […]. In the case of the rats that underwent surgery, the rats received intraperitoneal administration of pentobarbital sodium (Dolethal) at a dose of 60 mg/kg, and a maintenance dose of isoflurane (1.5%) was given 50 min after the induction dose. Body temperature was maintained at 37 ± 0.5 °C throughout the experiment by means of a homeothermic blanket. An ileal segment of approximately 7–10 cm was cannulated. […] The phenol red included in the perfusion solution was used as non-absorbable marker for measuring water transport. To avoid the oxidation of OLEA, we carried out the SPIP experiments in a laboratory room with infrared light. Samples of both the intestinal lumen and mesenteric blood were collected simultaneously at 5 min intervals for 60 min. The outflow perfusate samples were collected in 2 mL amber vials and the blood was collected in pre-weighed lithium-heparinized tubes (BD Vacutainer). Next, the perfusate samples were centrifuged (7516× g for 10 min at 4 °C), and the tubes with blood samples were weighed and centrifuged (3000× g for 10 min at 4 °C). The supernatants were collected and immediately stored at −80 °C awaiting analysis by LC–ESI–LTQ–Orbitrap–MS.
Plasma: The extraction of OLEA and its metabolites was carried out with protein precipitation. Initially, the samples were thawed and centrifuged (11,000× g, 10 min at 4 °C). To precipitate proteins, we blended 100 µL of plasma with cold acetonitrile containing 2% of formic acid (1:5 v/v). Samples were vortex-mixed for 1 min and kept at −20 °C for 20 min. The samples were then centrifuged (11,000× g, 4 °C, 10 min), and finally 100 µL of the supernatant was transferred to vials for analysis.
Stability study and lumen samples: The stability and perfusate OLEA samples were defrosted and centrifuged (11,000× g, 4 °C, 10 min), and 100 µL of the upper phase was transferred to vials for analysis. […].
Ileum tissue: The intestinal segment perfunded with OLEA in the SPIP experiments was also analyzed to quantify the OLEA and its metabolites retained in the tissue. First, the intestinal segment was rinsed by several perfusions with TM and then cut into small sections and homogenized after the addition of water/acetonitrile (1:1 (v/v) with 0.1% ascorbic acid) with a small tissue disruptor (T10 basic ULTRA-TURRAX®, IKA laboratory technology, Staufen, Germany). The samples were sonicated in an ice bath (5 min), shaken for 1 min, and centrifuged (11,000× g, 4 °C, 10 min). To precipitate proteins, we blended 100 µL of the upper layer with cold acetonitrile containing 2% of formic acid (1:3 v/v). Samples were vortex-mixed for 1 min, kept at −20 °C for 20 min, and centrifuged again (11,000× g, 4 °C, 10 min) before analyzing the supernatant.
The quantification of OLEA and red phenol in the samples and the profiling and structural characterization of OLEA metabolites was carried out using LC–ESI–LTQ–Orbitrap–MS. LC separation was performed using an Accela chromatograph (Thermo Scientific, Hemel Hempstead, UK) equipped with a quaternary pump, a photodiode array detector, and a thermostated autosampler. A 5-μL sample aliquot was injected onto an Acquity^TM UPLC® BEH C18 Column (2.1 × 100 mm, i.d., 1.7 µm particle size) coupled to an Acquity^TM UPLC® BEH C18 Pre-Column (2.1 × 5 mm, i.d., 1.7 µm particle size) (Waters Corporation®, Wexford, Ireland) with the column temperature set at 50 °C. Eluent A was 0.05% (v/v) formic acid in water, and eluent B was 0.05% formic acid in methanol. […]. […]

Data set [2] can be described thus: Stability in the perfusion solution (transport medium) at 37 °C. The class given is physicochemical. Conditions: for Presence of degradation products / derivatives in the perfusion solution (stability study): OLEA in transport medium, 60 min. As for the experimental part:
The transport medium (TM; pH 7, 9.7 g/L HBSS buffered with HEPES 10 mM) was used to infuse the compounds via the intestine. […] Red phenol was assayed at 0.1 mg/mL. The stability of these test compounds, sampled at different times, was monitored in the perfusion solution at 37 °C for 60 min. Stability study and lumen samples: The stability and perfusate OLEA samples were defrosted and centrifuged (11,000× g, 4 °C, 10 min), and 100 µL of the upper phase was transferred to vials for analysis.

A short description of data set [3]: Single-pass intestinal perfusion (SPIP) with mesenteric blood sampling: permeability and absorption. It is filed as in vivo. Conditions: ileum, SPIP in rats. The method, then: The transport medium (TM; pH 7, 9.7 g/L HBSS buffered with HEPES 10 mM) was used to infuse the compounds via the intestine. […] Red phenol was assayed at 0.1 mg/mL. The stability of these test compounds, sampled at different times, was monitored in the perfusion solution at 37 °C for 60 min.
Differences were considered significant at p < 0.05.

Details of data set [4]: method as in PMID 26904279. Conditions: oral administration 300 mg/kg in rats; cited from earlier work.
The conditions of data set [5]: cited from earlier work.
For data set [6] the following is noted: cited from earlier work. This is another data set of the same source.
Where [7] appears, read: after OLEA perfusion (SPIP, 60 min).

For the compound elenolic acid, in data set [1] (setting [7]), the “Detection in lumen, plasma and ileum tissue samples” value (from here on “Detection in lumen”) is reported as “not detected in any sample”.

Turning to `C/C=C(/CO)C(CC=O)CC(=O)OCCc1ccc(O)c(O)c1` (stereo not shown) [M3], the “Detection in lumen” value in data set [1] (setting [7]) is “detected in lumen, plasma, and ileum tissue”.

In the case of `C/C=C(/C=O)C(CC=O)CC(=O)OCCc1ccc(O)c(OC)c1` (stereo not shown) [M6], in data set [1] (setting [7]), the “Detection in lumen” value is “found in ileum tissue samples but not in the plasma and lumen”.

On to `CC=C(CO)C(CC=O)CC(=O)OCCc1ccc(OC2OC(C(=O)O)C(O)C(O)C2O)c(O)c1` (stereo not shown) [M9], for which the “Main product of phase II biotransformation” value in data set [1] (all the samples (plasma, lumen, ileum tissue)) is given as “main product of phase II biotransformation reactions in all the samples”. The “Time of highest relative abundance” value lay in the range of 55 to 60 min in data set [1] (lumen samples, after OLEA perfusion, p < 0.05) and 45 to 60 min in data set [1] (plasma, after OLEA perfusion, p < 0.05).

Consider `C/C=C(/C=O)C(CC(=O)OCCc1ccc(O)c(OC)c1)CC(O)O` (stereo not shown) [M8], for which the “Detection in lumen” value in data set [1] (setting [7]) is “found in ileum tissue samples but not in the plasma and lumen”.

On to `OCCc1ccc(O)c(O)c1` [M2, hydroxytyrosol], for which, in data set [1] (rat, in vivo), the “Detection in lumen” value is “found in lumen, plasma, and ileum tissue”; the “Time of highest concentration” value amounted to 55 min. Also, the “Metabolite level in plasma relative to lumen (fold higher)” value in data set [1] (rat, in vivo, 60 min) stood at 27 fold. Besides, the “Presence of degradation products / derivatives in the perfusion solution (stability study)” value in data set [2] was “absence”.

Take `C/C=C(/C=O)[C@@H](CC=O)CC(=O)OCCc1ccc(O)c(O)c1` [OLEA, Oleacein]: the “Absorption (%)” value in data set [3] (mean ± SD, n = 4) is 48.98 ± 12.27%. The “Mean permeability ratio (Peff) of OLEA/naproxen” value in data set [3] (p > 0.05) is on record as 1.24. For the same compound, the Effective intestinal permeability (Peff) at 60 min in data set [3] (rat, pH 7, luminal disappearance, mean ± SD, n = 4, read-out: Intestinal effective permeability coefficient (Peff) ± SD) turned out to be 183 ± 18 ×10⁻⁶ cm/s. In data set [4], the “Detection in portal plasma” value is “did not observe”. The “Stability in the perfusion solution” value in data set [2] (over 60 min, p > 0.05) is on record as “remained stable”. Also, the “log P (octanol/water)” value in data set [5] (ref 16) is listed as 1.02; in data set [5] (ref 60), 1.53.

In the case of `COc1ccc2cc([C@H](C)C(=O)O)ccc2c1` [Naproxen], the “Peff ± SD” value in data set [6] (Colon) is 2.06 ± 1.04 × 10^−4 cm/s; in data set [6] (Ileum, ref 56), 1.78 ± 0.52 × 10^−4 cm/s; in data set [6] (Ileum, ref 57) it was 1.17 ± 0.23 × 10^−4 cm/s; in data set [6] (Jejunum, ref 33), 1.19 ± 0.12 × 10^−4 cm/s; in data set [6] (Jejunum, ref 56), 1.47 ± 0.25 × 10^−4 cm/s; in data set [6] (Jejunum, ref 58) it was 1.17 ± 0.23 × 10^−4 cm/s.

As to `C/C=C(/C=O)C(CC(=O)O)CC(=O)OCCc1ccc(O)c(OC)c1` (stereo not shown) [M7], the “Detection in lumen” value in data set [1] (setting [7]) was “detected in plasma and, after being secreted by an efflux membrane protein, in lumen samples”.

As to `CC=C(C=O)C(CC(=O)OCCc1ccc(OC2OC(C(=O)O)C(O)C(O)C2O)c(OC)c1)CC(O)O` (stereo not shown) [M11], the “Detection in lumen” value in data set [1] (setting [7]) was “detected in lumen and ileum tissue samples but not in plasma”.

`C/C=C(/C=O)C(CC(=O)OCCc1ccc(O)c(O)c1)CC(O)O` (stereo not shown) [M5]: the “Detection in lumen” value in data set [1] (setting [7]) is “detected in lumen, plasma, and ileum tissue”. In addition, the “Presence of degradation products / derivatives in the perfusion solution (stability study)” value in data set [2] is reported as “traces”.

As for `C/C=C(/C=O)C(CC(=O)O)CC(=O)OCCc1ccc(O)c(O)c1` (stereo not shown) [M4], the “Detection in lumen” value in data set [1] (setting [7]) is “detected in lumen, plasma, and ileum tissue”. Moreover, in data set [1] (after OLEA perfusion, at 60 min), the “Metabolite level in plasma relative to lumen (fold higher)” value was determined as 29 fold. Further, the “Time of highest concentration” value in data set [1] (plasma and lumen samples, after OLEA perfusion, p < 0.05) is on record as 60 min.
